“And” between values parts separate entries of the source, which are not always exact repeats. Equal values may be shown once.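 Grown in 96-well plates, cells were treated for 48 hours with each compound at five concentrations. Insufficient inhibition: endpoint recorded as highest concentration tested. The concentration for 50% growth inhibition is given as GI50. TGI denotes the concentration required for complete inhibition of growth.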
Tests used:
Experiment in all cases: growth of human tumour cells (NCI), 48 h
SF-268 CNS = test system: SF-268 CNS
UACC-257 melanoma = test system: UACC-257 melanoma
SF-539 CNS = test system: SF-539 CNS
HOP-92 NSCLC = test system: HOP-92 NSCLC
KM12 colon = test system: KM12 colon
RPMI-8226 leukemia = test system: RPMI-8226 leukemia
SK-OV-3 ovarian = test system: SK-OV-3 ovarian
SNB-19 CNS = test system: SNB-19 CNS
ACHN renal = test system: ACHN renal
HS 578T breast = test system: HS 578T breast
MDA-MB-231 breast = test system: MDA-MB-231 breast
SK-MEL-28 melanoma = test system: SK-MEL-28 melanoma
NCI-H226 lung = test system: NCI-H226 lung
SR leukemia = test system: SR leukemia
OVCAR-8 ovarian = test system: OVCAR-8 ovarian
NCI-H23 lung = test system: NCI-H23 lung
MOLT-4 leukemia = test system: MOLT-4 leukemia
OVCAR-5 ovarian = test system: OVCAR-5 ovarian
OVCAR-4 ovarian = test system: OVCAR-4 ovarian
LOX IMVI melanoma = test system: LOX IMVI melanoma
M14 melanoma = test system: M14 melanoma
786-0 renal = test system: 786-0 renal
DU-145 prostate = test system: DU-145 prostate
MDA-MB-435 = test system: MDA-MB-435
SF-295 CNS = test system: SF-295 CNS
NCI-H522 lung = test system: NCI-H522 lung
PC-3 prostate = test system: PC-3 prostate
A498 renal = test system: A498 renal
MDA-N = test system: MDA-N
RXF 393 renal = test system: RXF 393 renal
MCF7 breast = test system: MCF7 breast
CCRF-CEM leukemia = test system: CCRF-CEM leukemia
OVCAR-3 ovarian = test system: OVCAR-3 ovarian
TK-10 renal = test system: TK-10 renal
COLO 205 colon = test system: COLO 205 colon
NCI-H460 lung = test system: NCI-H460 lung
HCC-2998 colon = test system: HCC-2998 colon
HCT-116 colon = test system: HCT-116 colon
EKVX NSCLC = test system: EKVX NSCLC
T-47D breast = test system: T-47D breast
HOP-62 NSCLC = test system: HOP-62 NSCLC
K-562 leukemia = test system: K-562 leukemia
HT29 colon = test system: HT29 colon
UACC-62 melanoma = test system: UACC-62 melanoma
SW-620 colon = test system: SW-620 colon
CAKI-1 renal = test system: CAKI-1 renal
HCT-15 colon = test system: HCT-15 colon
SN12C renal = test system: SN12C renal
IGROV1 ovarian = test system: IGROV1 ovarian
U251 CNS = test system: U251 CNS
NCI/ADR-RES ovarian = test system: NCI/ADR-RES ovarian
HL-60(TB) leukemia = test system: HL-60(TB) leukemia
MALME-3M melanoma = test system: MALME-3M melanoma
SK-MEL-5 melanoma = test system: SK-MEL-5 melanoma
UO-31 renal = test system: UO-31 renal
BT-549 breast = test system: BT-549 breast
SK-MEL-2 melanoma = test system: SK-MEL-2 melanoma
SNB-75 CNS = test system: SNB-75 CNS
A549 NSCLC = test system: A549 NSCLC

SMILES: Cc1cc(-c2cc(C)c(O)c(C(C)(C)C)c2)cc(C(C)(C)C)c1O
- TGI (SF-268 CNS): 23.9 µM and 29 µM
- TGI (UACC-257 melanoma): 24.1 µM and 24.7 µM
- TGI (SF-539 CNS): 28.2 µM and 35.4 µM
- GI50 (HOP-92 NSCLC): 15.1 µM and 4.92 µM
- TGI (HOP-92 NSCLC): 29.8 µM and 17.5 µM
- TGI (KM12 colon): 20.8 µM and 21.3 µM
- TGI (RPMI-8226 leukemia): 45.9 µM and 50.4 µM
- TGI (SK-OV-3 ovarian): 29.2 µM and 30.4 µM
- TGI (SNB-19 CNS): 27.7 µM and 26.7 µM
- TGI (ACHN renal): 22.4 µM and 29.1 µM
- TGI (HS 578T breast): 27.1 µM and 32.7 µM
- TGI (MDA-MB-231 breast): 21.4 µM and 26.2 µM
- TGI (SK-MEL-28 melanoma): 24.5 µM and 34.2 µM
- TGI (NCI-H226 lung): 22.6 µM and 35.9 µM
- TGI (SR leukemia): 18.1 µM
- TGI (OVCAR-8 ovarian): 31.5 µM and 26.1 µM
- TGI (NCI-H23 lung): 26.2 µM and 24.7 µM
- TGI (MOLT-4 leukemia): 19.4 µM and 21.5 µM
- TGI (OVCAR-5 ovarian): 24.4 µM and 28.4 µM
- TGI (OVCAR-4 ovarian): 27.6 µM and 23.8 µM
- TGI (LOX IMVI melanoma): 29.4 µM and 23.6 µM
- TGI (M14 melanoma): 22.4 µM and 25.4 µM
- TGI (786-0 renal): 22.6 µM and 25.7 µM
- TGI (DU-145 prostate): 25.7 µM and 28.5 µM
- TGI (MDA-MB-435): 26.4 µM and 28 µM
- TGI (SF-295 CNS): 23.1 µM and 23.2 µM
- TGI (NCI-H522 lung): 22.5 µM and 28.2 µM
- GI50 (PC-3 prostate): 6.09 µM and 13.7 µM
- TGI (PC-3 prostate): 19.2 µM and 26.5 µM
- TGI (A498 renal): 21.3 µM and 32.7 µM
- TGI (MDA-N): 21.2 µM and 27.9 µM
- TGI (RXF 393 renal): 25.5 µM and 26.1 µM
- TGI (MCF7 breast): 16.7 µM and 19.4 µM
- TGI (CCRF-CEM leukemia): 22.4 µM and 39.1 µM
- TGI (OVCAR-3 ovarian): 28.4 µM and 27 µM
- TGI (TK-10 renal): 24.5 µM and 23.2 µM
- TGI (COLO 205 colon): 23.1 µM and 28.9 µM
- TGI (NCI-H460 lung): 19.4 µM and 17.8 µM
- TGI (HCC-2998 colon): 15.4 µM and 18.7 µM
- TGI (HCT-116 colon): 19.5 µM and 22.8 µM
- TGI (EKVX NSCLC): 22.7 µM and 28.4 µM
- TGI (T-47D breast): 20.1 µM and 20.7 µM
- TGI (HOP-62 NSCLC): 34.5 µM and 31 µM
- TGI (K-562 leukemia): 25.4 µM and 37.5 µM
- TGI (HT29 colon): 12.7 µM and 16.4 µM
- TGI (UACC-62 melanoma): 26.1 µM and 26.8 µM
- TGI (SW-620 colon): 25.1 µM and 70 µM
- TGI (CAKI-1 renal): 22.7 µM and 27.7 µM
- GI50 (HCT-15 colon): 5.13 µM and 10.8 µM
- TGI (HCT-15 colon): 18.1 µM and 23.5 µM
- TGI (SN12C renal): 24.8 µM and 26.2 µM
- TGI (IGROV1 ovarian): 41.6 µM and 24.3 µM
- TGI (U251 CNS): 22.4 µM and 26.4 µM
- TGI (NCI/ADR-RES ovarian): 23.5 µM and 28.2 µM
- TGI (HL-60(TB) leukemia): 26.7 µM and 32.7 µM
- TGI (MALME-3M melanoma): 28.3 µM and 41.1 µM
- TGI (SK-MEL-5 melanoma): 22.3 µM and 28.2 µM
- TGI (UO-31 renal): 23 µM and 32 µM
- TGI (BT-549 breast): 27.6 µM and 26.5 µM
- TGI (SK-MEL-2 melanoma): 19.4 µM and 25.8 µM
- TGI (SNB-75 CNS): 25.4 µM and 27 µM
- TGI (A549 NSCLC): 21.4 µM and 21.3 µM

From PubChem BioAssay (NCI)
